| melting point | Compound |
| --- | --- |
| 169 °C | CC(C)CN(C)c1cc2c(cc1Cl)NC(=O)CC(c1cccc(-n3nncc3CN3CCCCC3)c1)=N2 [Example 144, 8-Chloro-7-(isobutyl-methyl-amino)-4-[3-(5-piperidin-1-ylmethyl-[1,2,3]triazol-1-yl)-phenyl]-1,3-dihydro-benzo[b][1,4]diazepin-2-one] |
| 248 °C | Cc1cc(-c2cccc(C3=Nc4cc(N(C)C)c(C#N)cc4NC(=O)C3)c2)on1 [Example 98, 8-Dimethylamino-2-[3-(3-methyl-isoxazol-5-yl)-phenyl]-4-oxo-4,5-dihydro-3H-benzo[b][1,4]diazepine-7-carbonitrile] |
| 189 °C | CC(C)N(C)c1cc2c(cc1C(F)(F)F)NC(=O)CC(c1ccnc(C#N)c1)=N2 [Example 172, 4-[8-(Isopropyl-methyl-amino)-4-oxo-7-trifluoromethyl-4,5-dihydro-3H-benzo[b][1,4]diazepin-2-yl]-pyridine-2-carbonitrile] |
| 187 °C | Cc1cc(-c2cccc(C3=Nc4cc(N(C)CC(C)C)c(C)cc4NC(=O)C3)c2)on1 [Example 134, 7-(Isobutyl-methyl-amino)-8-methyl-4-[3-(3-methyl-isoxazol-5-yl)-phenyl]-1,3-dihydro-benzo[b][1,4]diazepin-2-one] |
| 174 °C | CC(C)N(C)c1cc2c(cc1Cl)NC(=O)CC(c1cccc(-n3nncc3CNC3CCCC3)c1)=N2 [Example 142, 8-Chloro-4-[3-(5-cyclopentylaminomethyl-[1,2,3]triazol-1-yl)-phenyl]-7-(isopropyl-methyl-amino)-1,3-dihydro-benzo[b][1,4]diazepin-2-one] |
| 177 °C | Cc1cc2c(cc1N(C)CC(C)C)N=C(c1cccc(-n3nncc3CN3CCCC3)c1)CC(=O)N2 [Example 139, 7-(Isobutyl-methyl-amino)-8-methyl-4-[3-(5-pyrrolidin-1-ylmethyl-[1,2,3]triazol-1-yl)-phenyl]-1,3-dihydro-benzo[b][1,4]diazepin-2-one] |
| 191 °C | CC(C)CN(C)c1cc2c(cc1Cl)NC(=O)CC(c1cccc(-n3nncc3CN3CCC3)c1)=N2 [Example 130, 4-[3-(5-Azetidin-1-ylmethyl-[1,2,3]triazol-1-yl)-phenyl]-8-chloro-7-(isobutyl-methyl-amino)-1,3-dihydro-benzo[b][1,4]diazepin-2-one] |
| 223 °C | Cc1cc(-c2cccc(C3=Nc4cc(N(C)C)c(C(F)(F)F)cc4NC(=O)C3)c2)on1 [Example 18, 7-Dimethylamino-4-[3-(3-methyl-isoxazol-5-yl)-phenyl]-8-trifluoromethyl-1,3-dihydro-benzo[b][1,4]diazepin-2-one] |
| 250 °C | CC(C)Nc1cc2c(cc1Cl)NC(=O)CC(c1cccc(-n3nncc3CO)c1)=N2 [Example 161, 8-Chloro-4-[3-(5-hydroxymethyl-[1,2,3]triazol-1-yl)-phenyl]-7-isopropylamino-1,3-dihydro-benzo[b][1,4]diazepin-2-one] |
| 190 °C | CC(C)CN(C)c1cc2c(cc1Cl)NC(=O)CC(c1cccc(-n3nncc3CN3CCCC3)c1)=N2 [Example 126, 8-Chloro-7-(isobutyl-methyl-amino)-4-[3-(5-pyrrolidin-1-ylmethyl-[1,2,3]triazol-1-yl)-phenyl]-1,3-dihydro-benzo[b][1,4]diazepin-2-one] |
| 207 °C | CCN(C)c1cc2c(cc1C)NC(=O)CC(c1cccc(-n3nncc3CO)c1)=N2 [Example 94, 7-(Ethyl-methyl-amino)-4-[3-(5-hydroxymethyl-[1,2,3]triazol-1-yl)-phenyl]-8-methyl-1,3-dihydro-benzo[b][1,4]diazepin-2-one] |
| 152 °C | CC(C)N(C)c1cc2c(cc1C(F)(F)F)NC(=O)CC(c1cccc(-n3nncc3CNCC3CC3)c1)=N2 [Example 153, 4-(3-{5-[(Cyclopropylmethyl-amino)-methyl]-[1,2,3]triazol-1-yl}-phenyl)-7-(isopropyl-methyl-amino)-8-trifluoromethyl-1,3-dihydro-benzo[b][1,4]diazepin-2-one] |
| > 250 °C | CN(C)c1cc2c(cc1Cl)NC(=O)CC(c1cccc(C#N)c1)=N2 [Example 1, 3-(7-Chloro-8-dimethylamino-4-oxo-4,5-dihydro-3H-benzo[b][1,4]diazepin-2-yl)-benzonitrile] |
| 175 °C | CC(C)N(C)c1cc2c(cc1C(F)(F)F)NC(=O)CC(c1cccc(-n3nncc3CN3CCCC3)c1)=N2 [Example 151, 7-(Isopropyl-methyl-amino)-4-[3-(5-pyrrolidin-1-ylmethyl-[1,2,3]triazol-1-yl)-phenyl]-8-trifluoromethyl-1,3-dihydro-benzo[b][1,4]diazepin-2-one] |
| 213 °C | COCCN(C)c1cc2c(cc1Cl)NC(=O)CC(c1ccnc(-c3cc(C)no3)c1)=N2 [Example 12, 8-Chloro-7-[(2-methoxy-ethyl)-methyl-amino]-4-[2-(3-methyl-isoxazol-5-yl)-pyridin-4-yl]-1,3-dihydro-benzo[b][1,4]diazepin-2-one] |
| 241 °C | N#Cc1cc2c(cc1N1CCCC1)N=C(c1cccc(-n3nncc3CO)c1)CC(=O)N2 [Example 103, 2-[3-(5-Hydroxymethyl-[1,2,3]triazol-1-yl)-phenyl]-4-oxo-8-pyrrolidin-1-yl-4,5-dihydro-3H-benzo[b][1,4]diazepine-7-carbonitrile] |

| melting point | Compound |
| --- | --- |
| 221 °C | CCCN(C)c1cc2c(cc1C#N)NC(=O)CC(c1cccc(-n3nncc3CO)c1)=N2 [Example 105, 2-[3-(5-Hydroxymethyl-[1,2,3]triazol-1-yl)-phenyl]-8-(methyl-propyl-amino)-4-oxo-4,5-dihydro-3H-benzo[b][1,4]diazepine-7-carbonitrile] |
| 191 °C | CC(C)CNc1cc2c(cc1C(F)(F)F)NC(=O)CC(c1cccc(-n3cncn3)c1)=N2 [Example 182, 7-(Isobutyl-amino)-4-(3-[1,2,4]triazol-1-yl-phenyl)-8-trifluoromethyl-1,3-dihydro-benzo[b][1,4]diazepin-2-one] |
| 215 to 216 °C | CN(C)c1cc2c(cc1C#Cc1ccccc1)NC(=O)CC(c1cccc(C#N)c1)=N2 [Example 4, 3-(8-Dimethylamino-4-oxo-7-phenylethynyl-4,5-dihydro-3H-benzo[b][1,4]diazepin-2-yl)-benzonitrile] |
| 238 to 239 °C | Cc1ocnc1-c1cccc(C2=Nc3cc(N(C)C)c(C(F)(F)F)cc3NC(=O)C2)c1 [Example 211, 7-Dimethylamino-4-[3-(5-methyl-oxazol-4-yl)-phenyl]-8-trifluoromethyl-1,3-dihydro-benzo[b][1,4]diazepin-2-one] |
| 246 °C (dec.) | O=C1CC(c2cccc(-n3nncc3CO)c2)=Nc2cc(N3CCCCC3)c(Cl)cc2N1 [Example 50, 8-Chloro-4-[3-(5-hydroxymethyl-[1,2,3]triazol-1-yl)-phenyl]-7-piperidin-1-yl-1,3-dihydro-benzo[b][1,4]diazepin-2-one] |
| 243 to 244 °C | CN(C)c1cc2c(cc1C(F)(F)F)NC(=O)CC(c1cccc(-c3c(CO)cnn3C)c1)=N2 [Example 72, 7-Dimethylamino-4-[3-(4-hydroxymethyl-2-methyl-2H-pyrazol-3-yl)-phenyl]-8-trifluoromethyl-1,3-dihydro-benzo[b][1,4]diazepin-2-one] |
| 182 °C | CC(C)CN(C)c1cc2c(cc1C(F)(F)F)NC(=O)CC(c1cccc(-n3nncc3CN(C)C)c1)=N2 [Example 136, 4-[3-(5-Dimethylaminomethyl-[1,2,3]triazol-1-yl)-phenyl]-7-(isobutyl-methyl-amino)-8-trifluoromethyl-1,3-dihydro-benzo[b][1,4]diazepin-2-one] |
| 184 °C | CN(C)c1cc2c(cc1Cl)NC(=O)CC(c1cccc(-c3cc(CO)nn3C)c1)=N2 [Example 39, 8-Chloro-7-dimethylamino-4-[3-(5-hydroxymethyl-2-methyl-2H-pyrazol-3-yl)-phenyl]-1,3-dihydro-benzo[b][1,4]diazepin-2-one] |
| 200 to 205 °C | CN(c1cc2c(cc1C(F)(F)F)NC(=O)CC(c1ccnc(C#N)c1)=N2)C1CC1 [Example 83, 4-[8-(Cyclopropyl-methyl-amino)-4-oxo-7-trifluoromethyl-4,5-dihydro-3H-benzo[b][1,4]diazepin-2-yl]-pyridine-2-carbonitrile] |
| 236 °C | Cc1cc(-c2cccc(C3=Nc4cc(N5CCCC5)c(F)cc4NC(=O)C3)c2)on1 [Example 57, 8-Fluoro-4-[3-(3-methyl-isoxazol-5-yl)-phenyl]-7-pyrrolidin-1-yl-1,3-dihydro-benzo[b][1,4]diazepin-2-one] |
| 210 °C | CN(C)c1cc2c(cc1C(F)(F)F)NC(=O)CC(c1cccc(-n3nncc3CO)c1)=N2 [Example 17, 7-Dimethylamino-4-[3-(5-hydroxymethyl-[1,2,3]triazol-1-yl)-phenyl]-8-trifluoromethyl-1,3-dihydro-benzo[b][1,4]diazepin-2-one] |
| 192 to 193 °C | Cc1nc(-c2cccc(C3=Nc4cc(N(C)C)c(C(F)(F)F)cc4NC(=O)C3)c2)co1 [Example 210, 7-Dimethylamino-4-[3-(2-methyl-oxazol-4-yl)-phenyl]-8-trifluoromethyl-1,3-dihydro-benzo[b][1,4]diazepin-2-one] |
| 212 °C | CC(C)CNc1cc2c(cc1C(F)(F)F)NC(=O)CC(c1cccc(-n3ccnn3)c1)=N2 [Example 180, 7-(Isobutyl-amino)-4-(3-[1,2,3]triazol-1-yl-phenyl)-8-trifluoromethyl-1,3-dihydro-benzo[b][1,4]diazepin-2-one] |
| 176 °C | CN(C)c1cc2c(cc1C(F)(F)F)NC(=O)CC(c1cccc(-n3cccn3)c1)=N2 [Example 64, 7-Dimethylamino-4-(3-pyrazol-1-yl-phenyl)-8-trifluoromethyl-1,3-dihydro-benzo[b][1,4]diazepin-2-one] |
| 166 to 167 °C | CC(C)CN(C)c1cc2c(cc1Cl)NC(=O)CC(c1cccc(-c3nc(CO)co3)c1)=N2 [Example 190, 8-Chloro-4-[3-(4-hydroxymethyl-oxazol-2-yl)-phenyl]-7-(isobutyl-methyl-amino)-1,3-dihydro-benzo[b][1,4]diazepin-2-one] |
